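48-hour exposure; five concentrations; linearly interpolated endpoints. The concentration for 50% growth inhibition is given as GI50.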 The source made the active and inactive calls. Cut-off read from the data, not from the text of the source: active = GI50 up to about 1.1 µM and inactive = higher.
Tests used:
Assay in all cases: inhibition of tumour cell growth, NCI panel, 48 h
[1] = test system: CCRF-CEM
[2] = test system: UACC-257
[3] = test system: SNB-19
[4] = test system: TK-10
[5] = test system: SK-OV-3
[6] = test system: HOP-62
[7] = test system: HCC 2998
[8] = test system: SK-MEL-5
[9] = test system: SW-620
[10] = test system: SN12C
[11] = test system: LOX IMVI
[12] = test system: UACC-62
[13] = test system: HOP-92
[14] = test system: CAKI-1
[15] = test system: Hs-578T
[16] = test system: 786-0
[17] = test system: M14
[18] = test system: U-251
[19] = test system: SK-MEL-2
[20] = test system: EKVX

Row | Compound | GI50 [1] | GI50 [2] | GI50 [3] | GI50 [4] | GI50 [5] | GI50 [6] | GI50 [7] | GI50 [8] | GI50 [9] | GI50 [10] | GI50 [11] | GI50 [12] | GI50 [13] | GI50 [14] | GI50 [15] | GI50 [16] | GI50 [17] | GI50 [18] | GI50 [19] | GI50 [20]
1 | Cc1ccc(S(=O)(=O)N/N=C2\CCCCCCCCCCC2CN(C)C)cc1 (configuration not stated) | 15.7 µM (inactive) | 15 µM (inactive) | 15.5 µM (inactive) | 14.4 µM (inactive) | 20 µM (inactive) | 17.6 µM (inactive) | 8.43 µM (inactive) | 11.2 µM (inactive) | 17.9 µM (inactive) | 20.6 µM (inactive) | 17.1 µM (inactive) | 18.2 µM (inactive) | 10.3 µM (inactive) | 26.7 µM (inactive) | 15 µM (inactive) | 15.9 µM (inactive) | 17.1 µM (inactive) | 15.9 µM (inactive) | 10.6 µM (inactive) | 22.9 µM (inactive)
2 | CCOP(=O)(OCC)/C(=C/c1ccccc1)CC(C)=O | > 100 µM (inactive) | > 100 µM (inactive) | > 100 µM (inactive) | > 100 µM (inactive) | > 100 µM (inactive) | > 100 µM (inactive) | > 100 µM (inactive) | > 100 µM (inactive) | > 100 µM (inactive) | > 100 µM (inactive) | > 100 µM (inactive) | > 100 µM (inactive) | > 100 µM (inactive) | > 100 µM (inactive) | > 100 µM (inactive) | > 100 µM (inactive) | > 100 µM (inactive) | > 100 µM (inactive) | > 100 µM (inactive) | > 100 µM (inactive)
3 | C=CCc1cc(C=C(C#N)C#N)cc(OC)c1O | 46.9 µM (inactive) | > 100 µM (inactive) | > 100 µM (inactive) | > 100 µM (inactive) | > 100 µM (inactive) | – | > 10 µM (inactive) | 27.7 µM (inactive) | 81.7 µM (inactive) | – | 50.2 µM (inactive) | 94.2 µM (inactive) | 33.5 µM (inactive) | > 100 µM (inactive) | > 100 µM (inactive) | > 100 µM (inactive) | > 100 µM (inactive) | 76.2 µM (inactive) | > 100 µM (inactive) | > 100 µM (inactive)
4 | CCN(CC)CC(O)CNc1ccc(NCC2CO2)c2c1C(=O)c1ccccc1C2=O (configuration not stated) | – | 1.48 µM (inactive) | 1.68 µM (inactive) | 2.29 µM (inactive) | 1.86 µM (inactive) | 1.15 µM (inactive) | 1.19 µM (inactive) | 0.447 µM (active) | 0.0327 µM (active) | 0.139 µM (active) | < 0.01 µM (active) | 0.56 µM (active) | 1.75 µM (inactive) | 0.619 µM (active) | 1.14 µM (inactive) | 0.186 µM (active) | 0.199 µM (active) | 1.24 µM (inactive) | 0.226 µM (active) | 1.74 µM (inactive)
5 | OC(C1CO1)C(O)C1CO1 (configuration not stated) | 3.71 µM (inactive) | 81.7 µM (inactive) | 58.9 µM (inactive) | 86.3 µM (inactive) | 43.1 µM (inactive) | 7.26 µM (inactive) | 44.6 µM (inactive) | 29.1 µM (inactive) | – | 20.7 µM (inactive) | 15.7 µM (inactive) | 9.27 µM (inactive) | > 75.5 µM (inactive) | – | 80.9 µM (inactive) | 8.69 µM (inactive) | 18.6 µM (inactive) | 27 µM (inactive) | 61.1 µM (inactive) | 90.4 µM (inactive)
6 | CCOC(=O)c1c(-c2ccc(OC)cc2)c(C#N)c(=S)n(C2OC(COC(C)=O)C(OC(C)=O)C(OC(C)=O)C2OC(C)=O)c1-c1ccccc1 (configuration not stated) | > 100 µM (inactive) | > 100 µM (inactive) | > 100 µM (inactive) | > 100 µM (inactive) | > 100 µM (inactive) | > 100 µM (inactive) | > 100 µM (inactive) | 40.6 µM (inactive) | > 100 µM (inactive) | > 100 µM (inactive) | > 100 µM (inactive) | > 100 µM (inactive) | 17.8 µM (inactive) | > 100 µM (inactive) | 29.9 µM (inactive) | > 100 µM (inactive) | > 100 µM (inactive) | > 100 µM (inactive) | > 100 µM (inactive) | –
7 | CN1C(=O)C(C(=O)Nc2ccccn2)C2C[C@@]1(C)Oc1ccccc12 (some centres not stated) | > 100 µM (inactive) | > 100 µM (inactive) | > 100 µM (inactive) | > 100 µM (inactive) | > 100 µM (inactive) | > 100 µM (inactive) | > 100 µM (inactive) | > 100 µM (inactive) | > 100 µM (inactive) | – | > 100 µM (inactive) | 12 µM (inactive) | > 100 µM (inactive) | > 100 µM (inactive) | > 100 µM (inactive) | > 100 µM (inactive) | > 100 µM (inactive) | > 100 µM (inactive) | > 100 µM (inactive) | 63.5 µM (inactive)
8 | CC(C)(C)C(=O)C(Cc1ccccc1)C(=O)C(C)(C)C | 39.6 µM (inactive) | > 100 µM (inactive) | > 100 µM (inactive) | > 100 µM (inactive) | 23.2 µM (inactive) | > 100 µM (inactive) | > 100 µM (inactive) | > 100 µM (inactive) | > 100 µM (inactive) | > 100 µM (inactive) | > 100 µM (inactive) | – | 29.6 µM (inactive) | > 100 µM (inactive) | > 100 µM (inactive) | > 100 µM (inactive) | > 100 µM (inactive) | > 100 µM (inactive) | > 100 µM (inactive) | > 100 µM (inactive)
9 | Cn1ncc2c(Cl)ncnc21 | – | > 100 µM (inactive) | > 100 µM (inactive) | > 100 µM (inactive) | > 100 µM (inactive) | > 100 µM (inactive) | > 100 µM (inactive) | > 100 µM (inactive) | > 100 µM (inactive) | > 100 µM (inactive) | > 100 µM (inactive) | > 100 µM (inactive) | > 100 µM (inactive) | > 100 µM (inactive) | > 100 µM (inactive) | > 100 µM (inactive) | > 100 µM (inactive) | > 100 µM (inactive) | > 100 µM (inactive) | > 100 µM (inactive)
10 | O=C1c2cc([N+](=O)[O-])sc2C(=O)c2c([N+](=O)[O-])csc21 | 0.0759 µM (active) | 0.386 µM (active) | 1.63 µM (inactive) | 1.63 µM (inactive) | 1.68 µM (inactive) | – | 0.782 µM (active) | 0.166 µM (active) | 0.31 µM (active) | 0.542 µM (active) | 0.112 µM (active) | 0.378 µM (active) | 0.29 µM (active) | 1.11 µM (active) | 0.65 µM (active) | 0.483 µM (active) | 0.367 µM (active) | 0.379 µM (active) | 1.53 µM (inactive) | 1.48 µM (inactive)
11 | Cc1c(C(=O)O)sc2nc[nH]c(=O)c12 | – | > 100 µM (inactive) | > 100 µM (inactive) | > 100 µM (inactive) | > 100 µM (inactive) | > 100 µM (inactive) | > 100 µM (inactive) | > 100 µM (inactive) | > 100 µM (inactive) | > 100 µM (inactive) | > 100 µM (inactive) | > 100 µM (inactive) | 67.1 µM (inactive) | 50.2 µM (inactive) | 22.6 µM (inactive) | > 100 µM (inactive) | > 100 µM (inactive) | > 100 µM (inactive) | > 100 µM (inactive) | 53.8 µM (inactive)
12 | OC(CC(O)(C(F)(F)F)C(F)(F)F)c1ccc(C(O)CC(O)(C(F)(F)F)C(F)(F)F)cc1 (configuration not stated) | 16.8 µM (inactive) | 18.1 µM (inactive) | 17.1 µM (inactive) | – | 17 µM (inactive) | 17 µM (inactive) | 17.2 µM (inactive) | 13.9 µM (inactive) | 19.2 µM (inactive) | – | 16.7 µM (inactive) | 12.2 µM (inactive) | 13 µM (inactive) | 12.7 µM (inactive) | 22 µM (inactive) | 20.4 µM (inactive) | 15.9 µM (inactive) | 16.4 µM (inactive) | 22.3 µM (inactive) | 14.7 µM (inactive)
13 | c1ccc(C/C(=N\Nc2nc3ccccc3[nH]2)c2ccccn2)cc1 | < 0.01 µM (active) | < 0.0107 µM (active) | 0.254 µM (active) | – | 0.033 µM (active) | < 0.0232 µM (active) | 13.1 µM (inactive) | 0.0408 µM (active) | < 0.01 µM (active) | 0.0295 µM (active) | 0.119 µM (active) | 0.147 µM (active) | 0.0206 µM (active) | 0.056 µM (active) | 0.879 µM (active) | 0.0316 µM (active) | < 0.0288 µM (active) | < 0.0221 µM (active) | 2.89 µM (inactive) | –
14 | CC1(C2(C)OC(=O)c3ccccc32)OC(=O)c2ccccc21 (configuration not stated) | – | > 100 µM (inactive) | > 100 µM (inactive) | > 100 µM (inactive) | > 100 µM (inactive) | > 100 µM (inactive) | > 100 µM (inactive) | > 100 µM (inactive) | > 100 µM (inactive) | > 100 µM (inactive) | > 100 µM (inactive) | > 100 µM (inactive) | > 100 µM (inactive) | > 100 µM (inactive) | 72.6 µM (inactive) | > 100 µM (inactive) | > 100 µM (inactive) | > 100 µM (inactive) | > 100 µM (inactive) | –
15 | Nc1ccc2ccc(N3CCNCC3)nc2n1 | 31.6 µM (inactive) | > 100 µM (inactive) | 42.2 µM (inactive) | > 100 µM (inactive) | 83.9 µM (inactive) | 23.9 µM (inactive) | 44.2 µM (inactive) | – | 47.6 µM (inactive) | 51.2 µM (inactive) | > 100 µM (inactive) | 59.2 µM (inactive) | 46 µM (inactive) | > 100 µM (inactive) | 47.5 µM (inactive) | 61.7 µM (inactive) | 55.1 µM (inactive) | 80.2 µM (inactive) | 35.1 µM (inactive) | 74.1 µM (inactive)

From ChEMBL document CHEMBL1201862, “PubChem BioAssay data set” (2004)
